{
  "source": "patent US9504676B2",
  "about": "“Molecules inhibiting a metabolic pathway involving the Syk protein tyrosine kinase and method for identifying said molecules” (CENTRE NATIONAL DE LA RECHERCHE SCIENTIFIQUE, priority 2008, dated 2016)",
  "test_system": "RBL-2H3 cells",
  "experiment": "FACS analysis of IgE-dependent calcium flow",
  "assay_type": "cell-based, rat",
  "conditions": "mast cells",
  "procedure": "FIG. 3. C-13 inhibits FcεRI-dependent calcium release and degranulation. A. FACS analysis of IgE-dependent calcium flow in RBL-2H3 cells. B. Release of β-hexosaminidase in RBL-2H3 cells sensitised with IgE/DNP. C. Release of β-hexosamlnidase and, D. titration of TNF-α in BMMCs cells sensitised with IgE/DNP; C-13: 3 μM. E. FACS analysis of FCεRI surface expression in RBL-2H3 cells. (0=0.25% DMF). Significant inhibition with C-13 versus DMF: **P<0.01 and *P<0.05.\nBinding of Btk and Vav with SLP-76 is critical for regulating PLC-γ activity on the membrane, calcium mobilisation and granule exocytosis^27, 28.\n• 1) Chemical products and antibodies. A chemical bank of 3000 molecules (a varied subset) was acquired from ChemBridge, Inc. (San Diego, Calif.). […] The binding of G4G11 with Syk was assessed by adding the 9E10 monoclonal antibody conjugated with HRP detecting the amino acid sequence EQKLISEEDLN of human c-myc protein located at the C-terminal end of the scFv fragment. To generate Syk mutants, targeted mutagenesis was used on GST:Syk 6-242 protein and the binding of G4G11 with the mutants was assessed in the presence of 5 μM of C-13. • 3) Cells, culture conditions and functional tests. […]",
  "data": [
    {"smiles": "COC(=O)c1ccccc1-c1ccc(/C=C2/SC(=S)N(Cc3ccccc3)C2=O)o1", "note": "[Molecule C-13, methyl 2-{5-[(3-benzyl-4-oxo-2-thioxo-1,3-thiazolidin-5-ylidene)methyl]-2-furyl}benzoate]", "values": [
      {"measurement": "calcium flow in response to FcεRI binding", "result": "reduced calcium flow range"}
    ]}
  ]
}
